# Laboratory results from PubChem BioAssay AID1223 (NMMLSC, 2008).
# Calls of active or inactive are those of the source.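 Rule for the calls: active = total score of at least 50 of 100, built from tracer displacement at 10 µM, potency and curve span; inactive = total score under 50.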
# Target: Estrogen receptor (Homo sapiens) (UniProt P03372)
# Assay: fluorescent estrogen displacement from ERalpha – cell-based, Cos7 ERalpha-GFP, flow cytometry, dose response (AID 1223)
# Settings: E2-Alexa633 competitive binding
# Sequence of Estrogen receptor (Homo sapiens) (P03372 whole entry, looked up): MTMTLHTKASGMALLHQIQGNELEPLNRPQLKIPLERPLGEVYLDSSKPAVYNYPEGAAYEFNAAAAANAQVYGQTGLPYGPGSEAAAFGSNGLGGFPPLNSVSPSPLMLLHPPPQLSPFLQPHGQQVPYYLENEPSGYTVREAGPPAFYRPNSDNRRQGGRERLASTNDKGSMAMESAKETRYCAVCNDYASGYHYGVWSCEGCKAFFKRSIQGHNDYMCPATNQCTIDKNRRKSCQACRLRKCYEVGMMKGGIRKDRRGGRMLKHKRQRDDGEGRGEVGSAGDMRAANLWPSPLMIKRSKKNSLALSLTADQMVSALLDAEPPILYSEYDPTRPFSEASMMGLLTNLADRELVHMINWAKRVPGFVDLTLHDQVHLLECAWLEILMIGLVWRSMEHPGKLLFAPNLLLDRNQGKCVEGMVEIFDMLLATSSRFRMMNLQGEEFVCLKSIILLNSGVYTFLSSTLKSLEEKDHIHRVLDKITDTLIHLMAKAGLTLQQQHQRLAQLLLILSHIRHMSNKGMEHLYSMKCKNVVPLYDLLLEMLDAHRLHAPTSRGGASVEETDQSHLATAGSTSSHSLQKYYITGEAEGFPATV
row,SMILES,EC50
1,CCn1c(=NC(=O)c2ccc(N3C(=O)CCC3=O)cc2)sc2c(OC)ccc(OC)c21,> 10 µM (inactive)

# Same assay, conditions: E2-Alexa633 competitive binding, at 10 µM (top of the series)
row,SMILES,fluorescent ligand binding remaining
1,O=C(O)c1ccc2c(c1)C1C(Cl)C(Sc3ccccc3[N+](=O)[O-])CC1C(c1cccc([N+](=O)[O-])c1)N2 (stereo unspecified),inactive
2,Nc1ncnc2c1ncn2C1CCC(CO)C(O)C1 (stereo unspecified),inactive
3,Cc1ccc(-n2c(=O)c(C#N)cc3c(=O)n4cccc(C)c4nc32)cc1,inactive
4,CCc1nc2sc3ccccc3c(=O)c2c(=O)n1Cc1ccco1,inactive
5,CC(=O)Nc1ccc(OC(=O)CC2SC(=O)NC2=O)cc1 (stereo unspecified),inactive
6,Nc1ccc(-c2nc3ccc([N+](=O)[O-])cc3[nH]2)cc1,63.9%
7,Cc1nn(-c2ccccc2)c(/N=C/c2ccc(O)cc2)c1-c1ccccc1,inactive
8,COc1ccc(NC(=O)C(c2ccccc2)N(C)C(=O)c2ccc(=O)[nH]c2)cc1 (stereo unspecified),50.7%
9,CCCCCCNC(=O)c1cc(-c2ccco2)nc2ccccc12,inactive
10,O=C1/C(=C\c2ccco2)SC(=S)N1c1ccc(O)cc1,inactive
11,CCC(=O)Oc1ccc(/C(CC)=C(\CC)c2ccc(OC(=O)CC)cc2)cc1,22.8%
12,C[C@]12CC[C@@H]3c4ccc(O)cc4C(=O)C[C@H]3[C@@H]1CC[C@@H]2O,inactive
13,CCc1ccc(-c2nn(-c3ccccc3)cc2CSC(=N)N)cc1,inactive
14,O=C(Cc1cccs1)Nc1ccc(S(=O)(=O)Nc2ncccn2)cc1,inactive
15,CCNC(=O)c1ccc2c(c1)C1C3CCC(C3)C1C(c1ccccc1)N2 (stereo unspecified),inactive
16,CCn1nnc(NC(=O)CSc2ccc(Cl)cc2)n1,68.5%
17,CCCCOC(=O)c1c(C)oc2ccc(NS(=O)(=O)c3ccc4c5c(cccc35)C(=O)N4)cc12,inactive

row,SMILES,fluorescent ligand binding remaining
1,CC(=O)c1ccc2c(c1)C1C=CCC1C(c1ccc(S(=O)(=O)N3CCOCC3)cc1)N2 (stereo unspecified),inactive
2,O=C(c1cc2ncc(Br)cn2n1)N1CCN(C(=O)c2ccco2)CC1,inactive
3,COc1ccc(/C=N/NC(=O)c2nc(-c3ccccc3)cc(-c3ccccc3)n2)cc1O,44.4%
4,Oc1ccc(-c2nc(-c3ccc(O)c(O)c3)cs2)cc1,inactive
5,N=C1C(c2nc3ccccc3[nH]2)=C(O)CN1c1ccc(CC(=O)O)cc1,inactive
6,C[C@H]1CCC[C@@H](O)CCC/C=C/c2cc(O)cc(O)c2C(=O)O1,inactive
7,C/C=C(/C(=C/C)c1ccc(O)cc1)c1ccc(O)cc1,inactive
8,Cc1cc(C)c2c(c1)NC(c1cc3c(cc1Br)OCO3)C1CC=CC21 (stereo unspecified),inactive
9,Cc1ccc(C(=O)N/N=C/c2ccc([N+](=O)[O-])s2)cc1,inactive
10,Cc1cc(-c2nn3c(-c4ccccc4)nnc3s2)c2ccccc2n1,inactive
11,O=C1NC(c2ccc(Br)cc2)Nc2sc3c(c21)CCC3 (stereo unspecified),inactive
12,Oc1ccc(-c2nc3ccc4ccccc4c3c3c2CCC3)cc1O,inactive
13,O=S(=O)(NCCc1csc(-c2cccnc2)n1)c1ccc(Cl)s1,inactive
14,CCC(=O)Oc1ccc(C(CC)C(CC)c2ccc(OC(=O)CC)cc2)cc1 (stereo unspecified),19.9%
15,COc1cccc(C2Nc3c(F)cc(Br)cc3C3C=CCC32)c1OC (stereo unspecified),inactive
16,Cc1oc2cc(O)ccc2c(=O)c1Oc1ccccc1,42%
17,Cc1cc([N+](=O)[O-])c2c(c1C)C1C=CCC1C(c1ccccn1)N2 (stereo unspecified),27.9%

# Same assay, conditions: E2-Alexa633 competitive binding, at 100 µM (top of the series)
row,SMILES,fluorescent ligand binding remaining
1,O=C(O)c1ccc([N+](=O)[O-])c2c1NC(c1ccccc1)C1CC=CC21 (stereo unspecified),inactive
